The assay has as its system ET (Huh-lucubineo-ET) cell line harboring I389luc-ubi-neo/NS3-3′/ET HCV replicon. As to the kind of experiment: Replicon assay (HCV replicon, luciferase readout). The settings on record: Hepatitis C virus. In kind it is cell-based. In short, it runs like this:
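Compounds at 10-point 2-fold dilutions (overall 0.1 nM to […], 0.5% DMSO) were applied to ET cells carrying a luciferase-neo HCV replicon, seeded a day earlier. After 48-72 hours, luciferase-based % inhibition was fitted with a Hill equation for EC50, and parallel WST-1 readings gave TC50.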

Some results are limits rather than exact numbers.

This passage reports EC50 results from patent US20100204265A1 (priority 2009, published 2010).

As to `CC(=O)NC(C)C(=O)NCc1cn2cc(-c3ccoc3)cc(C(F)(F)F)c2n1` (stereo not shown) [Compound 244, 2-Acetylamino-N-(6-furan-3-yl-8-trifluoromethyl-imidazo[1,2-a]pyridin-2-ylmethyl)-propionamide], the EC50 (commonly the midpoint of the concentration-response curve) was over 50 µM.
Consider `CC(=O)NC(Cc1c[nH]c2ccccc12)C(=O)NCc1cn2cc(-c3ccoc3)cc(C(F)(F)F)c2n1` (stereo not shown) [Compound 245, 2-Acetylamino-N-(6-furan-3-yl-8-trifluoromethyl-imidazo[1,2-a]pyridin-2-ylmethyl)-3-(1H-indol-3-yl)-propionamide], for which the EC50 is over 50 µM.
With `COC(=O)CNC(=O)c1cn2cc(-c3ccoc3)cc(C(F)(F)F)c2n1` [Compound 246, [(6-Furan-3-yl-8-trifluoromethyl-imidazo[1,2-a]pyridine-2-carbonyl)-amino]-acetic acid methyl ester] the figure was over 50 µM; with `NC(=O)CNC(=O)c1cn2cc(-c3ccoc3)cc(C(F)(F)F)c2n1` [Compound 247, 6-Furan-3-yl-8-trifluoromethyl-imidazo[1,2-a]pyridine-2-carboxylic acid carbamoylmethyl-amide], over 50 µM.
In turn, `CNC(=O)CNC(=O)c1cn2cc(-c3ccoc3)cc(C(F)(F)F)c2n1` [Compound 248, 6-Furan-3-yl-8-trifluoromethyl-imidazo[1,2-a]pyridine-2-carboxylic acid methylcarbamoylmethyl-amide] yielded an EC50 of over 50 µM.
As for `CN(C)C(=O)CNC(=O)c1cn2cc(-c3ccoc3)cc(C(F)(F)F)c2n1` [Compound 249, 6-Furan-3-yl-8-trifluoromethyl-imidazo[1,2-a]pyridine-2-carboxylic acid dimethylcarbamoylmethyl-amide], the EC50 was over 50 µM.
`COC(=O)C(C)NC(=O)c1cn2cc(-c3ccoc3)cc(C(F)(F)F)c2n1` (stereo not shown) [Compound 250, 2-[(6-Furan-3-yl-8-trifluoromethyl-imidazo[1,2-a]pyridine-2-carbonyl)-amino]-propionic acid methyl ester] came in with a 50% effective concentration (EC50) of over 50 µM.
With `COC(=O)C(CCSC)NC(=O)c1cn2cc(-c3ccoc3)cc(C(F)(F)F)c2n1` (stereo not shown) [Compound 251, 2-[(6-Furan-3-yl-8-trifluoromethyl-imidazo[1,2-a]pyridine-2-carbonyl)-amino]-4-methylsulfanyl-butyric acid methyl ester] the figure was over 50 µM; with `COC(=O)C(CO)NC(=O)c1cn2cc(-c3ccoc3)cc(C(F)(F)F)c2n1` (stereo not shown) [Compound 252, 2-[(6-Furan-3-yl-8-trifluoromethyl-imidazo[1,2-a]pyridine-2-carbonyl)-amino]-3-hydroxy-propionic acid methyl ester], over 50 µM; with `COC(=O)C(NC(=O)c1cn2cc(-c3ccoc3)cc(C(F)(F)F)c2n1)C(C)O` (stereo not shown) [Compound 253, 2-[(6-Furan-3-yl-8-trifluoromethyl-imidazo[1,2-a]pyridine-2-carbonyl)-amino]-3-hydroxy-butyric acid methyl ester], over 50 µM.
In turn, `COC(=O)C1CCCN1C(=O)c1cn2cc(-c3ccoc3)cc(C(F)(F)F)c2n1` (stereo not shown) [Compound 254, 1-(6-Furan-3-yl-8-trifluoromethyl-imidazo[1,2-a]pyridine-2-carbonyl)-pyrrolidine-2-carboxylic acid methyl ester] had an EC50 of over 50 µM.
Under `COC(=O)C(NC(=O)c1cn2cc(-c3ccoc3)cc(C(F)(F)F)c2n1)c1ccccc1` (stereo not shown) [Compound 255, [(6-Furan-3-yl-8-trifluoromethyl-imidazo[1,2-a]pyridine-2-carbonyl)-amino]-phenyl-acetic acid methyl ester] stands over 50 µM; under `COC(=O)C(NC(=O)c1cn2cc(-c3ccoc3)cc(C(F)(F)F)c2n1)C(C)C` (stereo not shown) [Compound 256, 2-[(6-Furan-3-yl-8-trifluoromethyl-imidazo[1,2-a]pyridine-2-carbonyl)-amino]-3-methyl-butyric acid methyl ester], over 50 µM.
For the compound `COC(=O)C(CCCCNC(=O)OC(C)(C)C)NC(=O)c1cn2cc(-c3ccoc3)cc(C(F)(F)F)c2n1` (stereo not shown) [Compound 257, 6-tert-Butoxycarbonylamino-2-[(6-furan-3-yl-8-trifluoromethyl-imidazo[1,2-a]pyridine-2-carbonyl)-amino]-hexanoic acid methyl ester], the EC50 was over 50 µM.
`NCCc1cn2cc(-c3ccoc3)cc(C(F)(F)F)c2n1` [Compound 258, 2-(6-Furan-3-yl-8-trifluoromethyl-imidazo[1,2-a]pyridin-2-yl)-ethylamine] came in with a concentration for a half-maximal effect (EC50) of over 50 µM.
Compound `CC(=O)NC(CO)C(=O)NCc1cn2cc(-c3ccoc3)cc(C(F)(F)F)c2n1` (stereo not shown) [Compound 259, 2-Acetylamino-N-(6-furan-3-yl-8-trifluoromethyl-imidazo[1,2-a]pyridin-2-ylmethyl)-3-hydroxy-propionamide] gave a concentration for a half-maximal effect (EC50) of over 50 µM.
For `CC(=O)NC(Cc1ccccc1)C(=O)NCc1cn2cc(-c3ccoc3)cc(C(F)(F)F)c2n1` (stereo not shown) [Compound 260, 2-Acetylamino-N-(6-furan-3-yl-8-trifluoromethyl-imidazo[1,2-a]pyridin-2-ylmethyl)-3-phenyl-propionamide], the EC50 is over 50 µM.
Consider `CC(=O)NC(C(=O)NCc1cn2cc(-c3ccoc3)cc(C(F)(F)F)c2n1)C(C)C` (stereo not shown) [Compound 261, 2-Acetylamino-N-(6-furan-3-yl-8-trifluoromethyl-imidazo[1,2-a]pyridin-2-ylmethyl)-3-methyl-butyramide], for which the concentration for a half-maximal effect (EC50) was over 50 µM.
Consider `CC(C(=O)NCc1cn2cc(-c3ccoc3)cc(C(F)(F)F)c2n1)N(C)C` (stereo not shown) [Compound 262, 2-Dimethylamino-N-(6-furan-3-yl-8-trifluoromethyl-imidazo[1,2-a]pyridin-2-ylmethyl)-propionamide], for which the concentration for a half-maximal effect (EC50) is over 50 µM.
Under `O=C(NCCc1cn2cc(-c3ccoc3)cc(C(F)(F)F)c2n1)c1cccs1` [Compound 263, Thiophene-2-carboxylic acid [2-(6-furan-3-yl-8-trifluoromethyl-imidazo[1,2-a]pyridin-2-yl)-ethyl]-amide] stands over 50 µM.
Regarding `O=C(O)CNC(=O)c1cn2cc(-c3ccoc3)cc(C(F)(F)F)c2n1` [Compound 264, [(6-Furan-3-yl-8-trifluoromethyl-imidazo[1,2-a]pyridine-2-carbonyl)-amino]-acetic acid], the 50% effective concentration (EC50) was over 50 µM.
For the compound `CC(NC(=O)c1cn2cc(-c3ccoc3)cc(C(F)(F)F)c2n1)C(=O)O` (stereo not shown) [Compound 265, 2-[(6-Furan-3-yl-8-trifluoromethyl-imidazo[1,2-a]pyridine-2-carbonyl)-amino]-propionic acid], the EC50 was over 50 µM.
`CSCCC(NC(=O)c1cn2cc(-c3ccoc3)cc(C(F)(F)F)c2n1)C(=O)O` (stereo not shown) [Compound 266, 2-[(6-Furan-3-yl-8-trifluoromethyl-imidazo[1,2-a]pyridine-2-carbonyl)-amino]-4-methylsulfanyl-butyric acid] displayed an EC50 of over 50 µM.
As to `O=C(NC(CO)C(=O)O)c1cn2cc(-c3ccoc3)cc(C(F)(F)F)c2n1` (stereo not shown) [Compound 267, 2-[(6-Furan-3-yl-8-trifluoromethyl-imidazo[1,2-a]pyridine-2-carbonyl)-amino]-3-hydroxy-propionic acid], the concentration for a half-maximal effect (EC50) is over 50 µM.
The compound `O=C(c1nc2c(C(F)(F)F)cc(-c3ccoc3)cn2c1Cl)N1CCC(S(=O)(=O)c2ccccc2)CC1` [Compound 268, (4-Benzenesulfonyl-piperidin-1-yl)-(3-chloro-6-furan-3-yl-8-trifluoromethyl-imidazo[1,2-a]pyridin-2-yl)-methanone] gave a half-maximal effective concentration (EC50) of over 50 µM.
As to `CC(O)C(NC(=O)c1cn2cc(-c3ccoc3)cc(C(F)(F)F)c2n1)C(=O)O` (stereo not shown) [Compound 269, 2-[(6-Furan-3-yl-8-trifluoromethyl-imidazo[1,2-a]pyridine-2-carbonyl)-amino]-3-hydroxy-butyric acid], the EC50 was over 50 µM.
With `CC(C)CC(NC(=O)c1cn2cc(-c3ccoc3)cc(C(F)(F)F)c2n1)C(=O)O` (stereo not shown) [Compound 270, 2-[(6-Furan-3-yl-8-trifluoromethyl-imidazo[1,2-a]pyridine-2-carbonyl)-amino]-4-methyl-pentanoic acid], the EC50 is over 50 µM.
The compound `O=C(NC(C(=O)O)c1ccccc1)c1cn2cc(-c3ccoc3)cc(C(F)(F)F)c2n1` (stereo not shown) [Compound 271, [(6-Furan-3-yl-8-trifluoromethyl-imidazo[1,2-a]pyridine-2-carbonyl)-amino]-phenyl-acetic acid] displayed an EC50 of over 50 µM.
`CC(C)C(NC(=O)c1cn2cc(-c3ccoc3)cc(C(F)(F)F)c2n1)C(=O)O` (stereo not shown) [Compound 272, 2-[(6-Furan-3-yl-8-trifluoromethyl-imidazo[1,2-a]pyridine-2-carbonyl)-amino]-3-methyl-butyric acid] registered an EC50 of over 50 µM.
`CC(C)(C)C(NC(=O)c1cn2cc(-c3ccoc3)cc(C(F)(F)F)c2n1)C(=O)O` (stereo not shown) [Compound 273, 2-[(6-Furan-3-yl-8-trifluoromethyl-imidazo[1,2-a]pyridine-2-carbonyl)-amino]-3,3-dimethyl-butyric acid] had an EC50 of over 50 µM.
The compound `O=C(Cc1cccs1)NCCc1cn2cc(-c3ccoc3)cc(C(F)(F)F)c2n1` [Compound 274, N-[2-(6-Furan-3-yl-8-trifluoromethyl-imidazo[1,2-a]pyridin-2-yl)-ethyl]-2-thiophen-2-yl-acetamide] yielded a concentration for a half-maximal effect (EC50) of over 50 µM.
Under `O=C(NCCc1cn2cc(-c3ccoc3)cc(C(F)(F)F)c2n1)C1CC1` [Compound 275, Cyclopropanecarboxylic acid [2-(6-furan-3-yl-8-trifluoromethyl-imidazo[1,2-a]pyridin-2-yl)-ethyl]-amide] stands over 50 µM; under `COC(=O)CCNC(=O)c1cn2cc(-c3ccoc3)cc(C(F)(F)F)c2n1` [Compound 276, 3-[(6-Furan-3-yl-8-trifluoromethyl-imidazo[1,2-a]pyridine-2-carbonyl)-amino]-propionic acid methyl ester], over 50 µM; under `CC(NC(=O)c1cn2cc(-c3ccoc3)cc(C(F)(F)F)c2n1)C(N)=O` (stereo not shown) [Compound 277, 6-Furan-3-yl-8-trifluoromethyl-imidazo[1,2-a]pyridine-2-carboxylic acid (1-carbamoyl-ethyl)-amide], over 50 µM.
